In the experiment the target is T1, CruCA4 (Corallium rubrum, UniProt A0A1B0Y987).
T1 construct: gene CA4
Kind of experiment: stopped-flow CO2 hydrase activation assay. The experiment is classed as biochemical. To be noted: activation constant (activator); CO2 1.7-17 mM substrate, pH 7.5, 25 °C, 15 min pre-incubation. An excerpt: stopped-flow CO2 hydrase activation assay on CruCA4

T1 sequence (A0A1B0Y987 entry or part of it): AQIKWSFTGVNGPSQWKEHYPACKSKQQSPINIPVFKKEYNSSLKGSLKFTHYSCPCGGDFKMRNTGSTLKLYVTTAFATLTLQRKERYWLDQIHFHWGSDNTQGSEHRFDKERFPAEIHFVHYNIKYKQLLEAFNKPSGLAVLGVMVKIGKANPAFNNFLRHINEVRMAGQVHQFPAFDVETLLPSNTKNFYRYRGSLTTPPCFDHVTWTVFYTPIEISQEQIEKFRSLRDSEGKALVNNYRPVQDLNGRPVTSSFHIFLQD

Take `N[C@@H](Cc1cnc[nH]1)C(=O)O` [compound 1, L-His]: the “KA (μM) * / CruCA4 ^b” value stood at 36.9 µM.
The value for `N[C@H](Cc1c[nH]cn1)C(=O)O` [compound 2, D-His] was 0.098 µM; that for `N[C@H](Cc1ccccc1)C(=O)O` [compound 4, D-Phe] was 1.01 µM.
Regarding `N[C@@H](Cc1ccc(O)c(O)c1)C(=O)O` [compound 5, L-DOPA], the “KA (μM) * / CruCA4 ^b” value was found to be 13.7 µM.
The value for `N[C@H](Cc1ccc(O)c(O)c1)C(=O)O` [compound 6, D-DOPA] was 0.93 µM.
The result for `N[C@@H](Cc1c[nH]c2ccccc12)C(=O)O` [compound 7, L-Trp] reads 9.48 µM.
As for `N[C@H](Cc1c[nH]c2ccccc12)C(=O)O` [compound 8, D-Trp], the “KA (μM) * / CruCA4 ^b” value was determined as 8.35 µM.
The value for `Nc1ccc(C[C@H](N)C(=O)O)cc1` [compound 11, 4-H2N-L-Phe] was 0.074 µM; that for `NCc1ccccn1` [compound 15, 2-Pyridyl-methylamine] was 0.41 µM.
For `NCCN1CCNCC1` [compound 17, 1-(2-Aminoethyl)-piperazine], the “KA (μM) * / CruCA4 ^b” value stood at 0.004 µM.
The result for `NCCN1CCOCC1` [compound 18, 4-(2-Aminoethyl)-morpholine] reads 0.15 µM.

(Values after PMC6017236, “Activation Profile Analysis of CruCA4, an α-Carbonic Anhydrase Involved in Skeleton Formation of the Mediterranean Red Coral, Corallium rubrum” (Molecules : A Journal of Synthetic Chemistry and Natural …, 2017).)
